Source: the NIST ThermoML archive (doi:10.1016/j.jct.2018.08.036)

Experiments:
[1] = refractive index (Na D-line) (dimensionless); xn = mol fraction of the nth substance listed; settings: 100 kPa, Liquid, Standard Abbe refractometry
[2] = xn = mol fraction of the nth substance listed; settings: 100 kPa, Liquid; for viscosity: Falling or rolling sphere viscometry; for speed of sound: Frequency=3 MHz, Single path-length method; for mass density: Vibrating tube method

CCC(C)c1ccccc1 (centres undefined) [(1-methylpropyl)benzene] + CCCCCCCCCCCCCCCC
Settings | mass density, [2] [kg/m3] | refractive index, [1] | speed of sound, [2] [m/s] | viscosity, [2] [mPa·s]
298.15 K, x2 = 0 | 857.89 | 1.4876 | 1313.8 | 0.912
298.15 K, x2 = 0.0702 | 846.08 | 1.4801 | 1312 | 1.004
298.15 K, x2 = 0.1382 | 836.12 | 1.4738 | 1311.4 | 1.112
298.15 K, x2 = 0.2541 | 821.7 | 1.4647 | 1312.4 | 1.33
298.15 K, x2 = 0.3113 | 815.5 | 1.4608 | 1313.7 | 1.449
298.15 K, x2 = 0.4028 | 806.76 | 1.4553 | 1316.1 | 1.644
298.15 K, x2 = 0.4757 | 800.6 | 1.4515 | 1318.4 | 1.793
298.15 K, x2 = 0.5349 | 796.04 | 1.4486 | 1320.7 | 1.924
298.15 K, x2 = 0.6167 | 790.37 | 1.4451 | 1323.2 | 2.101
298.15 K, x2 = 0.7476 | 782.25 | 1.4401 | 1328.3 | 2.387
298.15 K, x2 = 0.832 | 777.71 | 1.4373 | 1331.6 | 2.587
308.15 K, x2 = 0 | 849.78 | 1.4827 | 1274.5 | 0.796
308.15 K, x2 = 0.0702 | 838.16 | 1.4753 | 1273.2 | 0.874
308.15 K, x2 = 0.1382 | 828.35 | 1.469 | 1273.1 | 0.954
308.15 K, x2 = 0.2541 | 814.15 | 1.46 | 1274.7 | 1.128
308.15 K, x2 = 0.3113 | 808.04 | 1.4562 | 1276.1 | 1.223
308.15 K, x2 = 0.4028 | 799.42 | 1.4508 | 1278.8 | 1.375
308.15 K, x2 = 0.4757 | 793.34 | 1.447 | 1281.2 | 1.493
308.15 K, x2 = 0.5349 | 788.84 | 1.4441 | 1283.5 | 1.592
308.15 K, x2 = 0.6167 | 783.24 | 1.4407 | 1286.2 | 1.734
308.15 K, x2 = 0.7476 | 775.3 | 1.4358 | 1291.7 | 1.95
308.15 K, x2 = 0.832 | 770.73 | 1.433 | 1294.6 | 2.099
318.15 K, x2 = 0 | 841.64 | 1.4778 | 1235.7 | 0.707
318.15 K, x2 = 0.0702 | 830.21 | 1.4704 | 1235 | 0.771
318.15 K, x2 = 0.1382 | 820.55 | 1.4642 | 1235.3 | 0.838
318.15 K, x2 = 0.2541 | 806.57 | 1.4553 | 1237.4 | 0.975
318.15 K, x2 = 0.3113 | 800.55 | 1.4516 | 1239 | 1.05
318.15 K, x2 = 0.4028 | 792.05 | 1.4462 | 1241.9 | 1.174
318.15 K, x2 = 0.4757 | 786.06 | 1.4425 | 1244.5 | 1.275
318.15 K, x2 = 0.5349 | 781.7 | 1.4398 | 1246.8 | 1.356
318.15 K, x2 = 0.6167 | 776.09 | 1.4364 | 1249.7 | 1.468
318.15 K, x2 = 0.7476 | 768.18 | 1.4315 | 1254.5 | 1.642
318.15 K, x2 = 0.832 | 763.74 | 1.4288 | 1258.2 | 1.762

CCCc1ccccc1 [propylbenzene] + CCCCCCCCCCCCCCCC
Settings | mass density, [2] [kg/m3] | refractive index, [1] | speed of sound, [2] [m/s] | viscosity, [2] [mPa·s]
298.15 K, x2 = 0 | 858.45 | 1.4896 | 1320.6 | 0.792
298.15 K, x2 = 0.0627 | 846.52 | 1.4817 | 1317.3 | 0.872
298.15 K, x2 = 0.1009 | 840.12 | 1.4775 | 1315.7 | 0.928
298.15 K, x2 = 0.207 | 825.01 | 1.4677 | 1314.8 | 1.092
298.15 K, x2 = 0.3093 | 813.2 | 1.4602 | 1315.7 | 1.269
298.15 K, x2 = 0.3863 | 805.79 | 1.4554 | 1317.7 | 1.408
298.15 K, x2 = 0.5055 | 796.08 | 1.4492 | 1320.9 | 1.654
298.15 K, x2 = 0.5603 | 792.22 | 1.4467 | 1322.7 | 1.776
298.15 K, x2 = 0.7042 | 783.32 | 1.441 | 1327.7 | 2.114
298.15 K, x2 = 0.7728 | 779.76 | 1.4387 | 1330 | 2.291
298.15 K, x2 = 0.8468 | 776.25 | 1.4365 | 1332.8 | 2.505
308.15 K, x2 = 0 | 850.01 | 1.4844 | 1280.6 | 0.699
308.15 K, x2 = 0.0627 | 838.3 | 1.4766 | 1277.8 | 0.766
308.15 K, x2 = 0.1009 | 832.03 | 1.4724 | 1276.8 | 0.813
308.15 K, x2 = 0.207 | 817.19 | 1.4628 | 1276.4 | 0.949
308.15 K, x2 = 0.3093 | 805.67 | 1.4554 | 1277.9 | 1.09
308.15 K, x2 = 0.3863 | 798.39 | 1.4509 | 1279.9 | 1.203
308.15 K, x2 = 0.5055 | 788.78 | 1.4448 | 1283.6 | 1.396
308.15 K, x2 = 0.5603 | 784.97 | 1.4424 | 1285.4 | 1.495
308.15 K, x2 = 0.7042 | 776.34 | 1.4368 | 1290.5 | 1.761
308.15 K, x2 = 0.7728 | 772.78 | 1.4346 | 1292.9 | 1.886
308.15 K, x2 = 0.8468 | 769.24 | 1.4323 | 1295.7 | 2.05
318.15 K, x2 = 0 | 841.53 | 1.4792 | 1241 | 0.626
318.15 K, x2 = 0.0627 | 830.05 | 1.4713 | 1238.8 | 0.683
318.15 K, x2 = 0.1009 | 823.89 | 1.4673 | 1238.2 | 0.722
318.15 K, x2 = 0.207 | 809.33 | 1.4578 | 1238.5 | 0.835
318.15 K, x2 = 0.3093 | 798.09 | 1.4506 | 1240.4 | 0.952
318.15 K, x2 = 0.3863 | 790.87 | 1.4461 | 1242.7 | 1.044
318.15 K, x2 = 0.5055 | 781.4 | 1.4402 | 1246.6 | 1.2
318.15 K, x2 = 0.5603 | 777.68 | 1.4378 | 1248.6 | 1.28
318.15 K, x2 = 0.7042 | 769.05 | 1.4324 | 1253.6 | 1.485
318.15 K, x2 = 0.7728 | 765.61 | 1.4302 | 1256.2 | 1.585
318.15 K, x2 = 0.8468 | 762.23 | 1.428 | 1258.9 | 1.713
